How the values were obtained:
HNF-1α = test: Western blot, HNF-1α protein level in HepG2 cells; format: cell-based, human; settings: HepG2, 50 µM, 24 h, mean ± SD
Description: The HepG2 cell line was bought from ATCC (HB-8065, ATCC from LGC Standards, Milan, Italy) and was cultured in DMEM high glucose with stable L-glutamine, supplemented with 10% FBS, 100 U/mL penicillin, 100 µg/mL streptomycin (complete growth medium) with incubation at 37 °C under 5% CO2 atmosphere.
Immunoblotting experiments were performed using optimized protocol. A total of 1.5 × 10^5 HepG2 cells/well (24-well plate) were treated with 50 μM of P5 and P5-met for 24 h. After each treatment, the supernatants were collected and stored at −20°C; cells were scraped in 40 µL ice-cold lysis buffer (RIPA buffer + inhibitor cocktail + 1:100 PMSF + 1:100 Na-orthovanadate + 1:1000 β-mercaptoethanol) and transferred in ice-cold microcentrifuge tubes. […] Total proteins were quantified by the Bradford’s method and 50 μg of total proteins loaded on a pre-cast 7.5% Sodium Dodecyl Sulfate-Polyacrylamide (SDS-PAGE) gel at 130 V for 45 min. […] Target proteins, on milk or BSA blocked membrane, were detected by primary antibodies as follows: anti-SREBP-2, anti-LDLR, anti-HMGCoAR, anti-PCSK9, anti HNF1-α and anti-β-actin. Secondary antibodies conjugated with HRP and a chemiluminescent reagent were used to visualize target proteins and their signal was quantified using the Image Lab Software (Biorad, Hercules, CA, USA). […]

[1] = system: differentiated Caco-2 cells; test: Trans-epithelial transport across differentiated Caco-2 cell monolayer; format: in vitro ADME, human; settings: for Amount in the BL compartment after 30 min: alone, 500 μM in AP, Caco-2 AP to BL
Description: Human intestinal Caco-2 cells, obtained from INSERM (Paris, France), where cultured according to a published protocol. For differentiation, they were seeded on polycarbonate filters, 12 mm diameter, 0.4 µm pore diameter (Transwell, Corning Inc., Lowell, MA, US) at a 3.5 × 10^5 cells/cm^2 density in complete medium supplemented with 10% FBS in both AP and BL compartments for 2 d to allow the formation of a confluent cell monolayer. Starting from day three after seeding, cells were transferred to FBS-free medium in both compartments, supplemented with ITS (final concentration 10 mg/L insulin (I), 5.5 mg/L transferrin (T), 6.7 μg/L sodium selenite (S); GIBCO-Invitrogen, San Giuliano Milanese, Italy) only in the basolateral (BL) compartment, and allowed to differentiate for 18–21 days with regular medium changes three times weekly.
The transepithelial electrical resistance (TEER) of differentiated Caco-2 cells was measured at 37 °C using the voltmeter apparatus Millicell (Millipore Co., Billerica, MA, USA), immediately before and at the end of the transport experiments. In addition, at the end of transport experiments, cells were incubated from the AP side with 1 mM phenol-red in PBS containing Ca^++ (0.9 mM) and Mg^++ (0.5 mM) for 1 h at 37 °C, to monitor the paracellular permeability of the cell monolayer. The BL solutions were then collected and NaOH (70 µL, 0.1 N) was added before reading the absorbance at 560 nm by a microplate reader Synergy H1 from Biotek (Winooski, VT, USA). Phenol-red passage was quantified using a standard phenol-red curve. Only filters showing TEER values and phenol red passages similar to untreated control cells were considered for peptide transport analysis.
Prior to experiments, the cell monolayer integrity and differentiation were checked by TEER measurement as described in detail above. Peptide trans-epithelial passage was assayed in differentiated Caco-2 cells in transport buffer solution (137 mM NaCl, 5.36 mM KCl, 1.26 mM CaCl2, and 1.1 mM MgCl2, 5.5 mM glucose) according to previously described conditions. In order to reproduce the pH conditions existing in vivo in the small intestinal mucosa, the apical (AP) solutions were maintained at pH 6.0 (buffered with 10 mM morpholinoethane sulfonic acid), and the basolateral (BL)solutions were maintained at pH 7.4 (buffered with 10 mM […]). Prior to transport experiments, cells were washed twice with 500 µL PBS containing Ca^++ and Mg^++. Peptide transportation by mature Caco-2 cells was assayed by loading the AP compartment with P5 alone, in mixture with […] (P3) and […] (P7), and/or P5-met (500 μM) in the AP transport solution (500 µL) and the BL compartment with the BL transport solution (700 µL). The plates were incubated at 37 °C and the BL solutions were collected at different time points (i.e., 15, 30, 60, 90, and 120 min) and replaced with fresh solutions pre-warmed at 37 °C. All BL and AP solutions collected at the end of the transport experiment were stored at −80 °C prior to analysis. Three independent transport experiments were performed, each in duplicate. In order to assess the involvement of transcytotic process in peptides passage, parallel transport experiments were performed in the presence of 500 nM wortmannin in both the AP and BL compartment, over 60 min incubation time.
The medium collected at the end of transport experiments from AP and BL chambers (500 µL and 700 µL, respectively) were freeze-dried and residues were solubilized in HPLC water (100 µL). Samples were desalted with C18 resin ZipTip by using 80% ACN, 0.1% FA as eluent (Millipore Corporation, Bedford, MA, USA). Each sample was lyophilized under speed-vacuum for 5 h at 30°C and re-dissolved in 50 μL (0.1% formic acid), before MS analysis. Purified BL samples were analyzed on a SL IT mass spectrometer interfaced with a HPLC- Chip Cube source (Agilent Technologies, Palo Alto, CA, USA). […]

H-LPKHSDAD-OH [Peptide P5-met]
Decrease of HNF-1α protein (HNF-1α): 10.8 ± 3.5% | Effect of the transcytosis inhibitor wortmannin on transport across Caco-2 cells ([1]; 500 nM wortmannin in AP and BL compartments, 60 min, HPLC-Chip MS of BL compartment): transported also in the presence of wortmannin | Amount in the BL compartment after 30 min ([1]; AP pH 6.0 / BL pH 7.4, 37 °C, LC-MS/MS MRM, mean ± SD of three independent experiments): 0.54 ± 0.02 µg | Amount in the BL compartment after 30 min ([1]; conversion of the µg value): 0.613 nmol

— publication PMC8000724, “Trans-Epithelial Transport, Metabolism, and Biological Activity Assessment of the Multi-Target Lupin Peptide [sequence] (P5) and Its Metabolite [sequence] (P5-Met)” (Nutrients, 2021)
